The target in assay [1] is T1, human MERTK cytoplasmic domain (Homo sapiens, UniProt Q12866).
T1 construct: human MERTK cytoplasmic domain (Carna Biosciences 08-108); purchased Carna Biosciences 08-108
Description: biochemical. Particulars: 30 uM ATP, read-out: Assay 1a Mer IC50 30 uM ATP. As for the experimental part: Assay 1a—MERTK HTRF KinEASE-TK Assay
The enzymatic reaction was carried out for 30 min at room temperature. 10 μL TK Antibody-Cryptate/Streptavidin-XL665 (Cisbio 610SAXLG) was then added for 60 min, including EDTA containing detection buffer (Cisbio 62SDBRDF) to stop the reaction.

In assay [2] the target is T2, recombinant human MERTK expressed in live cells (HEK 293, MERTK-Nanoluc fusion vector) (Homo sapiens, UniProt Q12866).
T2 construct: host or cells: HEK 293
T2 sequence (Q12866 21-999): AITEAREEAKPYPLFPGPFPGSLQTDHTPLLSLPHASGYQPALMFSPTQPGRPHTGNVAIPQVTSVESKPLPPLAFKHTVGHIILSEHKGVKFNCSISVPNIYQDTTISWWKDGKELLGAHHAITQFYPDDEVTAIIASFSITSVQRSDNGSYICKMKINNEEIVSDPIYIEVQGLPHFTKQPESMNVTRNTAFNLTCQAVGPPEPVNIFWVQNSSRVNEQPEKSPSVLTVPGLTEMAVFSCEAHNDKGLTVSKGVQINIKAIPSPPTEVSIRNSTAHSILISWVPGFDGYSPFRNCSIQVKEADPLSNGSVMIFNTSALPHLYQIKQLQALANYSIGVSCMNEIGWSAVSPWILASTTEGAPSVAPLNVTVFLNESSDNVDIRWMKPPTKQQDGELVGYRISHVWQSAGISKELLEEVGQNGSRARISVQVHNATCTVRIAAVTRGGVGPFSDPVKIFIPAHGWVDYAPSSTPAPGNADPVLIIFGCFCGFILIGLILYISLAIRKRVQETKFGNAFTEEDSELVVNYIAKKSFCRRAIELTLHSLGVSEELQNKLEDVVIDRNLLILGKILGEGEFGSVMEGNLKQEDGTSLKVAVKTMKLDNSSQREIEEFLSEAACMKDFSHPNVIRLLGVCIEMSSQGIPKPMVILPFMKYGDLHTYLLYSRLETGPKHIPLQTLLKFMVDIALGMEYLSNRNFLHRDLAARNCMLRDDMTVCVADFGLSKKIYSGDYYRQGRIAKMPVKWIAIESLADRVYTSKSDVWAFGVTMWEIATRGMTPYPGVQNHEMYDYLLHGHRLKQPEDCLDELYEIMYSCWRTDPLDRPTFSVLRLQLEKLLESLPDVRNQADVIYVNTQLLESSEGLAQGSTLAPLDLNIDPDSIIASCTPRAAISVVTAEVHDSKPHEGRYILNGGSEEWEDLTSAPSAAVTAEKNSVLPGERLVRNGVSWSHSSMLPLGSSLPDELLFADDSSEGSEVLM
Description: Assay 2 MERTK cellular target engagement (NanoBRET TE) assay. The format is cell-based. The note with it: HEK 293 cells, tracer K9, 2 h at 37° C.; read-out: Assay 2 Cell TE MER IC50. In general terms: Bioluminescence resonance energy transfer reports proximity on the nanometre scale.

Assay [3] concerns the target T3, human AXL cytoplasmic domain (Homo sapiens, UniProt P30530).
T3 construct: human AXL cytoplasmic domain (Thermo Fisher A31515); purchased Thermo Fisher A31515
T3 sequence (P30530 473-894 limits assumed): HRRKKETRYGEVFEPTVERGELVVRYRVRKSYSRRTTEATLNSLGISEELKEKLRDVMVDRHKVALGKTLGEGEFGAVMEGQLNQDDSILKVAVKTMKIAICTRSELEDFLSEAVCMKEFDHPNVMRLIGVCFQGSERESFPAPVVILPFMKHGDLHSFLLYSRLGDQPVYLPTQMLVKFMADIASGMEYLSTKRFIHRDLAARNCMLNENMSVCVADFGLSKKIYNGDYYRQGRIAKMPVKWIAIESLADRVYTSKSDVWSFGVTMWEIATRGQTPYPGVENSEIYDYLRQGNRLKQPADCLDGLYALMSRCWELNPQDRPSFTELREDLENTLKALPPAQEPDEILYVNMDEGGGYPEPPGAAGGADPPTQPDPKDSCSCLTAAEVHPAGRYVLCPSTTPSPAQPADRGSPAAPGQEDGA
Nature of the assay: Assay 1b AXL HTRF KinEASE-TK assay. The format is biochemical. A digest of the protocol: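 Recombinant cytoplasmic domain (5 nM) in kinase buffer with 5 mM MgCl2, 1 mM MnCl2, 1 mM DTT, 50 nM SEB plus test compounds; reaction 30 min at room temperature. EDTA-containing detection with TK antibody-cryptate/streptavidin-XL665 for 60 min; HTRF 665/620 ratio read. IC50 from 4-parameter logistic fit with variable slope.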
(In general: In TR-FRET formats the signal depends on donor and acceptor labels being close together.)

Assay [4] addresses T4, Ba/F3 Pro B-cell line expressing TEL-human MERTK fusion domain (Homo sapiens, UniProt Q12866).
T4 sequence (Q12866 587-858 limits assumed): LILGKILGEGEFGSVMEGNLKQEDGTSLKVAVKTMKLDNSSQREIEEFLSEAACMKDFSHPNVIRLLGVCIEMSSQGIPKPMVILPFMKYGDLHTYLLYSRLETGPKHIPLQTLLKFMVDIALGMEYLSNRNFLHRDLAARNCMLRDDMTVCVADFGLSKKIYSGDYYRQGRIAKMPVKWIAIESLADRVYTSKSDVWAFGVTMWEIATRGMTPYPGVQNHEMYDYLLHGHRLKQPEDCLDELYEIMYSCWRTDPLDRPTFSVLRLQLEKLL
The format is cell-based. Particulars: cell survival, 48 h, CellTiter-Glo; read-out: TEL-MERTK Ba/F3 IC50. A digest of the protocol: (§1)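 Ba/F3 cells dependent on BCR-AXL or TEL-MERTK fusion kinase (IL3-free; IL3 only for control lines) treated with compound 48 h at 37 °C, 0.25% DMSO. Viability by CellTiter-Glo luminescence; IC50 for half-maximal inhibition of survival from 4-parameter variable-slope fit.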

Assay [5] concerns the target T5, Ba/F3 Pro B-cell line expressing BCR-human AXL kinase domain fusion protein (Homo sapiens, UniProt P30530).
T5 construct: P11274 (Breakpoint cluster region protein)
T5 sequence (P30530 536-807 limits assumed): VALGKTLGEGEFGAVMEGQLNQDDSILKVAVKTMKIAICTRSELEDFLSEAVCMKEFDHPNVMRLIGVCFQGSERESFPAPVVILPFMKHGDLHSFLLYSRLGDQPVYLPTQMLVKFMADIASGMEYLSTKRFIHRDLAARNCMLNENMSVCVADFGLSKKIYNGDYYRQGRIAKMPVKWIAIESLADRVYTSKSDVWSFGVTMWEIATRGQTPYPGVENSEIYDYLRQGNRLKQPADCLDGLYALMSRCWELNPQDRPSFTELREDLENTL
Description: Assay 5 Ba/F3 cell survival assay, BCR-Axl. Type of assay: cell-based. Particulars: read-out: BCR-Axl Ba/F3 IC50, 48 h, CellTiter-Glo. In a few lines:
as §1
(ATP-based viability assays read luminescence as a measure of living cells.)

Assay [6] concerns the target T6, Ba/F3 Pro B-cell line expressing TEL-human Tyro3 fusion domain (Homo sapiens, UniProt Q06418).
T6 sequence (Q06418 518-790 limits assumed): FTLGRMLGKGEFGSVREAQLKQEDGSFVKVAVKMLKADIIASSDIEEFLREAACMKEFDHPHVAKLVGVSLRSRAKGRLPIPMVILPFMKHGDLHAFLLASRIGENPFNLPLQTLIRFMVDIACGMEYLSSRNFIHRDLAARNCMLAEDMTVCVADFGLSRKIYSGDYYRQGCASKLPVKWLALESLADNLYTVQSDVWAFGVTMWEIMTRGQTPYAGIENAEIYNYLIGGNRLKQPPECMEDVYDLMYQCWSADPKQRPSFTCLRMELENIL
Type of assay: cell-based. Particulars: cell survival, 48 h, CellTiter-Glo.

Like-named read-outs stand apart in the source and are kept apart here.

Take `Cc1c(C(=O)Nc2ccc(Nc3ccnc4cnc(N5CCNCC5)cc34)cc2)c(=O)n(-c2ccccc2)n1C` [Example 1.4, 1,5-dimethyl-3-oxo-2-phenyl-N-[4-[(6-piperazin-1-yl-1,7-naphthyridin-4-yl)amino]phenyl]pyrazole-4-carboxamide]: the figures for the IC50 in assay [1] and in assay [2] were 33 nM and 2190 nM, respectively.

Turning to `Cn1cc(-c2cc3c(Nc4ccc(NC(=O)c5cccn(-c6ccccc6)c5=O)cc4)ccnc3cn2)cn1` [Example 4, N-[4-[[6-(1-methylpyrazol-4-yl)-1,7-naphthyridin-4-yl]amino]phenyl]-2-oxo-1-phenyl-pyridine-3-carboxamide], the IC50 turned out to be 3 nM in assay [1] (* Maximal inhibition achieved 40%) and 2900 nM in assay [2].

As for `CC(C)n1cc(C(=O)Nc2ccc(Oc3ccnc4cnc(N5CCNCC5)cc34)cc2)c(=O)n(-c2ccc(F)cc2)c1=O` [Example 12.5, 3-(4-fluorophenyl)-1-isopropyl-2,4-dioxo-N-[4-[(6-piperazin-1-yl-1,7-naphthyridin-4-yl)oxy]phenyl]pyrimidine-5-carboxamide], the IC50 is 3 nM in assay [1]; 5 nM in assay [3]; 38 nM in assay [4]; 5 nM in assay [5]; 428 nM in assay [6].

Regarding `Cc1cc(NC(=O)c2cccn(-c3ccc(F)cc3)c2=O)ncc1Oc1ccnc2cnc(C(=O)NC3CCN(C)CC3)cc12` [Example 25, 4-[[6-[[1-(4-fluorophenyl)-2-oxo-pyridine-3-carbonyl]amino]-4-methyl-3-pyridyl]oxy]-N-(1-methyl-4-piperidyl)-1,7-naphthyridine-6-carboxamide], the IC50 in assay [1] was found to be 29 nM; in assay [3], 76 nM; in assay [4] it was 54 nM; in assay [5] it was 27 nM; in assay [6], 91 nM.

For the compound `CC(C)n1cc(C(=O)Nc2ccc(Oc3ccnc4cnc(N5CCN(C6COC6)CC5)cc34)cn2)c(=O)c(-c2ccc(F)cc2)c1` [Example 20.2, 5-(4-fluorophenyl)-1-isopropyl-N-[5-[[6-[4-(oxetan-3-yl)piperazin-1-yl]-1,7-naphthyridin-4-yl]oxy]-2-pyridyl]-4-oxo-pyridine-3-carboxamide], the IC50 in assay [1] is 1 nM; in assay [3] it was 7 nM; in assay [4] it was 5 nM; in assay [5] it was 2 nM; in assay [6] it was 220 nM.

Regarding `CC(C)n1cc(C(=O)Nc2ccc(Oc3ccnc4cnc(C(=O)NC5CCN(C)CC5)cc34)cc2)c(=O)n(-c2ccc(F)cn2)c1=O` [Example 9, 4-[4-[[3-(5-Fluoro-2-pyridyl)-1-isopropyl-2,4-dioxo-pyrimidine-5-carbonyl]amino]phenoxy]-N-(1-methyl-4-piperidyl)-1,7-naphthyridine-6-carboxamide], the IC50 in assay [1] was 14 nM; in assay [3] it was 11 nM; in assay [4], 85 nM; in assay [5] it was 6 nM; in assay [6], 252 nM.

On to `O=C(Nc1ccc(Oc2ccnc3cnc(N4CCN(C5COC5)CC4)cc23)cn1)c1cccn(-c2ccc(F)cc2)c1=O` [Example 10.2, 1-(4-fluorophenyl)-N-[5-[[6-[4-(oxetan-3-yl)piperazin-1-yl]-1,7-naphthyridin-4-yl]oxy]-2-pyridyl]-2-oxo-pyridine-3-carboxamide], for which the IC50 came out at 2 nM in assay [1]; 20 nM in assay [3]; 17 nM in assay [4]; 14 nM in assay [5]; 394 nM in assay [6].

As for `CN1CCN(c2cc3c(Oc4ccc(NC(=O)c5cccn(-c6ccc(F)cc6)c5=O)cc4)ccnc3cn2)CC1` [Example 35, 1-(4-fluorophenyl)-N-[4-[[6-(4-methylpiperazin-1-yl)-1,7-naphthyridin-4-yl]oxy]phenyl]-2-oxo-pyridine-3-carboxamide], the IC50 in assay [1] was 4 nM; in assay [3] it was 60 nM; in assay [4], 14 nM; in assay [5] it was 8 nM; in assay [6], 116 nM.

(Values after US20230203029A1 (priority 2020, published 2023).)
